Assay results taken from patent US20230017045A1, “PYRIDINE AND PYRIMIDINE CARBOXYLATE HERBICIDES AND METHODS OF USE THEREOF” (Dow AgroSciences LLC, priority 2017, published 2023).
Like-named read-outs stand apart in the source and are kept apart here.

Test system: test plant species
Test: Post-emergent herbicidal activity test (greenhouse, foliar spray, visual growth reduction)
Assay type: in vivo
Settings: post-emergence, 336 h, 140 g ai/ha
Procedure, shortened: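 Seedlings were raised 7-21 d in a greenhouse under a 15 h photoperiod until the first or second true leaf. Each compound, dissolved in acetone:DMSO 97:3 and diluted into a surfactant-containing spray mixture, was then applied at 187 L/ha. Plants were subirrigated, and growth reduction was scored visually at 14 d.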

[1] = ALOMY: blackgrass (Alopecurus myosuroides), 14 days after application, read-out: Visual Growth Reduction (%) 14 Days After Application, ALOMY
[2] = AMARE: redroot pigweed (Amaranthus retroflexus), 14 days after application, read-out: Visual Growth Reduction (%) 14 Days After Application, AMARE
[3] = AVEFA: wild oat (Avena fatua), 14 days after application, read-out: Visual Growth Reduction (%) 14 Days After Application, AVEFA
[4] = CHEAL: lambsquarters (Chenopodium album), 14 days after application, read-out: Visual Growth Reduction (%) 14 Days After Application, CHEAL
[5] = CIRAR: canada thistle (Cirsium arvense), 14 days after application, read-out: Visual Growth Reduction (%) 14 Days After Application, CIRAR
[6] = CYPES: yellow nutsedge (Cyperus esculentus), 14 days after application, read-out: Visual Growth Reduction (%) 14 Days After Application, CYPES
[7] = DIGSA: crabgrass (Digitaria sanguinalis), 14 days after application, read-out: Visual Growth Reduction (%) 14 Days After Application, DIGSA
[8] = ECHCG: barnyardgrass (Echinochloa crus-galli), 14 days after application, read-out: Visual Growth Reduction (%) 14 Days After Application, ECHCG
[9] = IPOHE: ivy-leaf morning glory (Ipomoea hederacea), 14 days after application, read-out: Visual Growth Reduction (%) 14 Days After Application, IPOHE
[10] = KCHSC: kochia (Bassia scoparia), 14 days after application, read-out: Visual Growth Reduction (%) 14 Days After Application, KCHSC
[11] = ORYSA: rice (Oryza sativa), 14 days after application, read-out: Visual Growth Reduction (%) 14 Days After Application, ORYSA
[12] = SETFA: giant foxtail (Setaria faberi), 14 days after application, read-out: Visual Growth Reduction (%) 14 Days After Application, SETFA
[13] = SORVU: grain sorghum (Sorghum vulgare), 14 days after application, read-out: Visual Growth Reduction (%) 14 Days After Application, SORVU
[14] = STEME: common chickweed (Stellaria media), 14 days after application, read-out: Visual Growth Reduction (%) 14 Days After Application, STEME
[15] = TRZAS: wheat, spring (Triticum aestivum), 14 days after application, read-out: Visual Growth Reduction (%) 14 Days After Application, TRZAS
[16] = barnyardgrass (Echinochloa crus-galli), 14 Days After Application, read-out: Visual Growth Reduction (%) ECHCG
[17] = common chickweed (Stellaria media), 14 Days After Application, read-out: Visual Growth Reduction (%) STEME
[18] = giant foxtail (Setaria faberi), 14 Days After Application, read-out: Visual Growth Reduction (%) SETFA
[19] = ivy-leaf morning glory (Ipomoea hederacea), 14 Days After Application, read-out: Visual Growth Reduction (%) IPOHE
[20] = johnsongrass (Sorghum vulgare), 14 Days After Application, read-out: Visual Growth Reduction (%) SORVU
[21] = kochia (Bassia scoparia), 14 Days After Application, read-out: Visual Growth Reduction (%) KCHSC
[22] = rice (Oryza sativa), 14 Days After Application, read-out: Visual Growth Reduction (%) ORYSA
[23] = wheat, spring (Triticum aestivum), 14 Days After Application, read-out: Visual Growth Reduction (%) TRZAS
[24] = blackgrass (Alopecurus myosuroides), 14 Days After Application, read-out: Visual Growth Reduction (%) ALOMY
[25] = canada thistle (Cirsium arvense), 14 Days After Application, read-out: Visual Growth Reduction (%) CIRAR
[26] = crabgrass (Digitaria sanguinalis), 14 Days After Application, read-out: Visual Growth Reduction (%) DIGSA
[27] = lambsquarters (Chenopodium album), 14 Days After Application, read-out: Visual Growth Reduction (%) CHEAL
[28] = redroot pigweed (Amaranthus retroflexus), 14 Days After Application, read-out: Visual Growth Reduction (%) AMARE
[29] = wild oat (Avena fatua), 14 Days After Application, read-out: Visual Growth Reduction (%) AVEFA
[30] = yellow nutsedge (Cyperus esculentus), 14 Days After Application, read-out: Visual Growth Reduction (%) CYPES

Row | Compound | pest or weed control at 140 g/ha [1] [%] | pest or weed control at 140 g/ha [2] [%] | pest or weed control at 140 g/ha [3] [%] | pest or weed control at 140 g/ha [4] [%] | pest or weed control at 140 g/ha [5] [%] | pest or weed control at 140 g/ha [6] [%] | pest or weed control at 140 g/ha [7] [%] | pest or weed control at 140 g/ha [8] [%] | pest or weed control at 140 g/ha [9] [%] | pest or weed control at 140 g/ha [10] [%] | pest or weed control at 140 g/ha [11] [%] | pest or weed control at 140 g/ha [12] [%] | pest or weed control at 140 g/ha [13] [%] | pest or weed control at 140 g/ha [14] [%] | pest or weed control at 140 g/ha [15] [%] | other results
1 | COC(=O)c1nc(-c2ccc(C(F)(F)F)cc2C#N)ccc1Cl [F24, Methyl 3-chloro-6-(2-cyano-4-(trifluoromethyl)phenyl) picolinate] | 0 to 29 | 85 to 94 | 0 to 29 | 95 to 100 | 95 to 100 | 0 to 29 | 85 to 94 | 85 to 94 | 95 to 100 | 60 to 74 | 0 to 29 | 45 to 59 | 85 to 94 | 0 to 29 | 0 to 29 | 
2 | COC(=O)c1nc(-c2ccc(C(F)(F)F)cc2Cl)ccc1C#N [F10, Methyl 6-(2-chloro-4-(trifluoromethyl)phenyl)-3-cyanopicolinate] | 0 to 29 | 30 to 44 | 0 to 29 | 45 to 59 | 30 to 44 | 45 to 59 | 45 to 59 |  |  |  |  |  |  |  |  | pest or weed control at 140 g/ha [16]: 0 to 29%; pest or weed control at 140 g/ha [17]: 0 to 29%; pest or weed control at 140 g/ha [18]: 0 to 29%; pest or weed control at 140 g/ha [19]: 60 to 74%; pest or weed control at 140 g/ha [20]: 30 to 44%; pest or weed control at 140 g/ha [21]: 0 to 29%; pest or weed control at 140 g/ha [22]: 0 to 29%; pest or weed control at 140 g/ha [23]: 0 to 29%
3 | COC(=O)c1nc(-c2c(Cl)cc(C(F)(F)F)cc2[N+](=O)[O-])ccc1Cl [F206, Methyl 3-chloro-6-(2-chloro-6-nitro-4-(trifluoromethyl)phenyl)picolinate] |  |  |  |  |  |  |  | 0 to 29 | 95 to 100 | 30 to 44 | 75 to 84 | 75 to 84 | 75 to 84 | 0 to 29 | 0 to 29 | pest or weed control at 140 g/ha [24]: 0 to 29%; pest or weed control at 140 g/ha [25]: 30 to 44%; pest or weed control at 140 g/ha [26]: 45 to 59%; pest or weed control at 140 g/ha [27]: 30 to 44%; pest or weed control at 140 g/ha [28]: 45 to 59%; pest or weed control at 140 g/ha [29]: 0 to 29%; pest or weed control at 140 g/ha [30]: 0 to 29%
4 | COC(=O)c1nc(-c2ccc(OC(F)(F)F)cc2F)c(F)cc1Cl [F187, Methyl 3-chloro-5-fluoro-6-(2-fluoro-4-(trifluoromethoxy)phenyl)picolinate] | 0 to 29 | 85 to 94 | 30 to 44 | 75 to 84 | 75 to 84 | 30 to 44 | 85 to 94 | 45 to 59 | 95 to 100 | 45 to 59 | 0 to 29 | 75 to 84 | 95 to 100 | 0 to 29 | 30 to 44 | 
5 | COC(=O)c1nc(-c2cc3c(cc2Cl)OC(F)(F)O3)c(F)cc1Cl [F153, Methyl 3-chloro-6-(6-chloro-2,2-difluorobenzo[d] [1,3]dioxol-5-yl)-5-fluoropicolinate] | 60 to 74 | 95 to 100 | 60 to 74 | 85 to 94 | 85 to 94 | 0 to 29 | 85 to 94 | 75 to 84 | 95 to 100 | 85 to 94 | 0 to 29 | 85 to 94 | 95 to 100 | 0 to 29 | 30 to 44 | 
6 | COC(=O)c1cc2c(c(-c3nc(C(=O)OC)c(Cl)cc3F)c1)OC(F)(F)O2 [F244, Methyl 3-chloro-6-(2,2-difluoro-6-(methoxycarbonyl)benzo[d][1,3]dioxol-4-yl)-5-fluoropicolinate] |  |  |  |  |  |  |  | 0 to 29 | 0 to 29 | 0 to 29 | 0 to 29 | 0 to 29 | 0 to 29 | 0 to 29 | 0 to 29 | pest or weed control at 140 g/ha [24]: 0 to 29%; pest or weed control at 140 g/ha [25]: 0 to 29%; pest or weed control at 140 g/ha [26]: 0 to 29%; pest or weed control at 140 g/ha [27]: 60 to 74%; pest or weed control at 140 g/ha [28]: 0 to 29%; pest or weed control at 140 g/ha [29]: 0 to 29%; pest or weed control at 140 g/ha [30]: 0 to 29%
7 | COC(=O)c1nc(-c2ccc(/C=N/N(C)C)cc2Cl)ccc1Cl [F20, methyl 3-chloro-6-(2-chloro-4-((2,2-dimethylhydrazono)methyl)phenyl) picolinate] | 0 to 29 | 0 to 29 | 0 to 29 | 0 to 29 | 0 to 29 | 0 to 29 | 0 to 29 |  |  |  |  |  |  |  |  | pest or weed control at 140 g/ha [16]: 0 to 29%; pest or weed control at 140 g/ha [17]: 0 to 29%; pest or weed control at 140 g/ha [18]: 0 to 29%; pest or weed control at 140 g/ha [19]: 60 to 74%; pest or weed control at 140 g/ha [20]: 0 to 29%; pest or weed control at 140 g/ha [21]: 0 to 29%; pest or weed control at 140 g/ha [22]: 0 to 29%; pest or weed control at 140 g/ha [23]: 0 to 29%
8 | COC(=O)c1nc(-c2ccc(C(F)(F)F)cc2C(N)=O)ccc1Cl [F146, Methyl 6-(2-carbamoyl-4-(trifluoromethyl)phenyl)-3-chloropicolinate] | 0 to 29 | 0 to 29 | 0 to 29 | 0 to 29 | 0 to 29 | 0 to 29 | 0 to 29 | 0 to 29 | 30 to 44 | 0 to 29 | 0 to 29 | 0 to 29 | 0 to 29 | 0 to 29 | 0 to 29 | 
